SMILES strings stand for the structures.

The target in this experiment is T1, Jarid1A (Homo sapiens, UniProt P29375).
T1 construct: purchased BPS Bioscience 50110
T1 sequence (P29375 1-1090): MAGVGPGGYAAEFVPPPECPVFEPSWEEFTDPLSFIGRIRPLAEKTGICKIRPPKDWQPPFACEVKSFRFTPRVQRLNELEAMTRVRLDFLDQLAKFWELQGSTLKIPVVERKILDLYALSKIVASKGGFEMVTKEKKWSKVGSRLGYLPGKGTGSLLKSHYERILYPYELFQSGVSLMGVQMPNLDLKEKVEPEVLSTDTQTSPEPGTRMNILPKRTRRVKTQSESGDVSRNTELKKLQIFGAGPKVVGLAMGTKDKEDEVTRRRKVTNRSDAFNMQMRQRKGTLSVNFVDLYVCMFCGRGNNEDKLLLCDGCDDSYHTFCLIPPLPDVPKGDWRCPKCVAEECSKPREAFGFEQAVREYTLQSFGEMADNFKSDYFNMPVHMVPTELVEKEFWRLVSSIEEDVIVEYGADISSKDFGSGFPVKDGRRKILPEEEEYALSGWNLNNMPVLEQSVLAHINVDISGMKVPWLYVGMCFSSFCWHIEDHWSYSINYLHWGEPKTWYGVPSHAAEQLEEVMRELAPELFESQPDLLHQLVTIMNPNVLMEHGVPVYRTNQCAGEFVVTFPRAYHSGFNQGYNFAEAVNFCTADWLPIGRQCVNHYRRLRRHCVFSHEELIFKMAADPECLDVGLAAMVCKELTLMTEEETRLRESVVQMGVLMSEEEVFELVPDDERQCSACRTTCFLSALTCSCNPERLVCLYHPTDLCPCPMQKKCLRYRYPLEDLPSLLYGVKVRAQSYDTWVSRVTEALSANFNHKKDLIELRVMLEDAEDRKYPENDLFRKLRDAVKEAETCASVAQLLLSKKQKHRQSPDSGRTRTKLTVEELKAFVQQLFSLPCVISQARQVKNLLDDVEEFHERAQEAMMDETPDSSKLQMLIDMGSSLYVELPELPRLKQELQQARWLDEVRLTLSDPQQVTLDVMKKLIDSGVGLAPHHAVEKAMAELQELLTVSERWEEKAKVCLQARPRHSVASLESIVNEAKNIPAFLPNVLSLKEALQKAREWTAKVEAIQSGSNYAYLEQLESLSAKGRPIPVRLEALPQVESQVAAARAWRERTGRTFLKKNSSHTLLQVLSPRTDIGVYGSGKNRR
The experiment can be described thus: Jarid1A in vitro enzyme inhibition assay (TR-FRET). Format: biochemical. The essentials:
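Demethylation of 300 nM biotin-H3K4me3 peptide by 1 nM baculovirus-expressed Jarid1A (aa 1–1090) with 2 μM α-ketoglutarate, Fe(II) and ascorbate, pH 7.3, 30 min at room temperature. Stopped with EDTA; H3K4me1-2 product detected by TR-FRET (Eu anti-H3K4me1-2/streptavidin-APC). IC50 fitted from 665/615 ratio over 11-point dilutions.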
Consider `Oc1nc(OC2CCc3ccccc32)nc2cnccc12` (stereo not drawn) [Example 192, 2-(2,3-dihydro-1H-inden-1-yloxy)pyrido[3,4-d]pyrimidin-4-ol], for which the half-inhibitory concentration (IC50) (in general, the point on the concentration scale where inhibition reaches its midpoint) lay in the range of 1000 to 10000 nM.
Regarding `Oc1nc(OCC2CCc3ccccc32)nc2cnccc12` (stereo not drawn) [Example 190, 2-(2,3-dihydro-1H-inden-1-ylmethoxy)pyrido[3,4-d]pyrimidin-4-ol], the 50% inhibitory concentration (IC50) was 100 to 1000 nM.
In the case of `O=C(NCCOc1nc(O)c2ccncc2n1)c1ccccc1` [Example 31, N-[2-(4-hydroxypyrido[3,4-d]pyrimidin-2-yl)oxyethyl]benzamide], the IC50 was at most 100 nM.
The same measure for `Oc1nc(OCCOCc2ccccc2)nc2cnccc12` [Example 30, 2-(2-phenylmethoxyethoxy)pyrido[3,4-d]pyrimidin-4-ol]: 100 to 1000 nM.
As for `CCOc1nc(O)c2ccncc2n1` [Example 2, 2-ethoxypyrido[3,4-d]pyrimidin-4-ol], the figure is at most 100 nM.
The same measure for `CC(C)(O)CCOc1nc(O)c2ccncc2n1` [Example 24, 2-(3-hydroxy-3-methylbutoxy)pyrido[3,4-d]pyrimidin-4-ol]: at most 100 nM.
With `Oc1nc(OCc2cccc3ccccc23)nc2cnccc12` [Example 184, 2-(naphthalen-1-ylmethoxy)pyrido[3,4-d]pyrimidin-4-ol], the IC50 fell in the range of 1000 to 10000 nM.
On to `Oc1nc(OCC2CCOC2)nc2cnccc12` (stereo not drawn) [Example 27, 2-(oxolan-3-ylmethoxy)pyrido[3,4-d]pyrimidin-4-ol], for which the IC50 lay in the range of 100 to 1000 nM.
The same measure for `CC(C)Oc1nc(O)c2ccncc2n1` [Example 1, 2-propan-2-yloxy-3H-pyrido[3,4-d]pyrimidin-4-one]: 100 to 1000 nM; for `N#Cc1cccc(COc2nc(O)c3ccncc3n2)c1` [Example 32, 3-[(4-hydroxypyrido[3,4-d]pyrimidin-2-yl)oxymethyl]benzonitrile]: 100 to 1000 nM.
Regarding `Oc1nc(OCc2coc3ccccc23)nc2cnccc12` [Example 193, 2-(1-benzofuran-3-ylmethoxy)pyrido[3,4-d]pyrimidin-4-ol], the IC50 fell in the range of 100 to 1000 nM.
For the compound `Cn1cnc(-c2nccc3c(=O)[nH]cnc23)c1` [Example 198, 8-(1-methylimidazol-4-yl)-3H-pyrido[3,4-d]pyrimidin-4-one], the IC50 is 100 to 1000 nM.
The same measure for `Oc1nc(OCc2ccccc2F)nc2cnccc12` [Example 178, 2-[(2-fluorophenyl)methoxy]pyrido[3,4-d]pyrimidin-4-ol]: 1000 to 10000 nM; for `Oc1nc(OCC2CCOc3ccccc32)nc2cnccc12` (stereo not drawn) [Example 195, 2-(3,4-dihydro-2H-1-benzopyran-4-ylmethoxy)pyrido[3,4-d]pyrimidin-4-ol]: 100 to 1000 nM; for `Oc1nc(OC2Cc3ccccc3C2)nc2cnccc12` [Example 189, 2-(2,3-dihydro-1H-inden-2-yloxy)pyrido[3,4-d]pyrimidin-4-ol]: 100 to 1000 nM.
The same measure for `Oc1nc(OCc2cccc(F)c2F)nc2cnccc12` [Example 181, 2-[(2,3-difluorophenyl)methoxy]pyrido[3,4-d]pyrimidin-4-ol]: 1000 to 10000 nM.
The same measure for `Cn1ccc(COc2nc(O)c3ccncc3n2)n1` [Example 33, 2-[(1-methylpyrazol-3-yl)methoxy]pyrido[3,4-d]pyrimidin-4-ol]: 1000 to 10000 nM.
The compound `CC(=O)N(C)CCOc1nc(O)c2ccncc2n1` [Example 28, N-[2-(4-hydroxypyrido[3,4-d]pyrimidin-2-yl)oxyethyl]-N-methylacetamide] displayed an IC50 of 100 to 1000 nM.
As for `Oc1nc(OCc2ccc3ccccc3c2)nc2cnccc12` [Example 187, 2-(naphthalen-2-ylmethoxy)pyrido[3,4-d]pyrimidin-4-ol], the figure is 1000 to 10000 nM.
As for `Oc1nc(OCc2cc(F)ccc2F)nc2cnccc12` [Example 182, 2-[(2,5-difluorophenyl)methoxy]pyrido[3,4-d]pyrimidin-4-ol], the figure is 1000 to 10000 nM.
The same measure for `Oc1nc(OC2CCOc3ccccc32)nc2cnccc12` (stereo not drawn) [Example 197, 2-(3,4-dihydro-2H-1-benzopyran-4-yloxy)pyrido[3,4-d]pyrimidin-4-ol]: 100 to 1000 nM; for `Oc1nc(OCC2CCc3ccccc3C2)nc2cnccc12` (stereo not drawn) [Example 191, 2-(1,2,3,4-tetrahydronaphthalen-2-ylmethoxy)pyrido[3,4-d]pyrimidin-4-ol]: 100 to 1000 nM.
Compound `Oc1nc(OCc2ccccc2C(F)(F)F)nc2cnccc12` [Example 177, 2-{[2-(trifluoromethyl)phenyl]methoxy}pyrido[3,4-d]pyrimidin-4-ol] registered a concentration for half-maximal inhibition (IC50) of 1000 to 10000 nM.
In turn, `Oc1nc(OCc2ccc(F)cc2)nc2cnccc12` [Example 180, 2-[(4-fluorophenyl)methoxy]pyrido[3,4-d]pyrimidin-4-ol] returned an IC50 of 1000 to 10000 nM.
The compound `Oc1nc(OCc2c(F)cccc2F)nc2cnccc12` [Example 183, 2-[(2,6-difluorophenyl)methoxy]pyrido[3,4-d]pyrimidin-4-ol] had a 50% inhibitory concentration (IC50) of 1000 to 10000 nM.
The same measure for `Oc1nc(OCc2ccccc2-c2ccccc2)nc2cnccc12` [Example 185, 2-[(2-phenylphenyl)methoxy]pyrido[3,4-d]pyrimidin-4-ol]: 1000 to 10000 nM; for `Oc1nc(OCc2cccc(F)c2)nc2cnccc12` [Example 179, 2-[(3-fluorophenyl)methoxy]pyrido[3,4-d]pyrimidin-4-ol]: 1000 to 10000 nM.
The same measure for `Oc1nc(OCCOCC(F)(F)F)nc2cnccc12` [Example 23, 2-[2-(2,2,2-trifluoroethoxy)ethoxy]pyrido[3,4-d]pyrimidin-4-ol]: 100 to 1000 nM; for `CC(CO)COc1nc(O)c2ccncc2n1` (stereo not drawn) [Example 25, 2-(3-hydroxy-2-methylpropoxy)pyrido[3,4-d]pyrimidin-4-ol]: 100 to 1000 nM.
As for `Oc1nc(OC2CCCc3ccccc32)nc2cnccc12` (stereo not drawn) [Example 196, 2-(1,2,3,4-tetrahydronaphthalen-1-yloxy)pyrido[3,4-d]pyrimidin-4-ol], the figure is 1000 to 10000 nM; as for `Oc1nc(OCC2COc3ccccc32)nc2cnccc12` (stereo not drawn) [Example 194, 2-(2,3-dihydro-1-benzofuran-3-ylmethoxy)pyrido[3,4-d]pyrimidin-4-ol], 1000 to 10000 nM; as for `CC(C)OCCOc1nc(O)c2ccncc2n1` [Example 29, 2-(2-propan-2-yloxyethoxy)pyrido[3,4-d]pyrimidin-4-ol], 100 to 1000 nM.
With `Oc1nc(OCC2CCCO2)nc2cnccc12` (stereo not drawn) [Example 26, 2-(oxolan-2-ylmethoxy)pyrido[3,4-d]pyrimidin-4-ol], the half-inhibitory concentration (IC50) lay in the range of 100 to 1000 nM.
The same measure for `Oc1nc(OCC2CCCc3ccccc32)nc2cnccc12` (stereo not drawn) [Example 188, 2-(1,2,3,4-tetrahydronaphthalen-1-ylmethoxy)pyrido[3,4-d]pyrimidin-4-ol]: 100 to 1000 nM; for `Oc1nc(Oc2ccccc2)nc2cnccc12` [Example 34, 2-phenoxypyrido[3,4-d]pyrimidin-4-ol]: at most 100 nM.
The same measure for `Oc1nc(OCc2cccc(-c3ccccc3)c2)nc2cnccc12` [Example 186, 2-[(3-phenylphenyl)methoxy]pyrido[3,4-d]pyrimidin-4-ol]: 1000 to 10000 nM.
